Here are results for 15 compounds from patent US20120302573A1, “METHODS OF INHIBITING PRO MATRIX METALLOPROTEINASE ACTIVATION” (priority 2011, published 2012).

In experiment [1] the target is T1, proMMP13(1-268) (SEQ ID NO:7) (Homo sapiens, UniProt P45452).
T1 construct: 6x-histidine tag (C); made in house; host or cells: HEK293
The experiment is described as follows: ThermoFluor binding assay with proMMP13(1-268). As for the experimental part:
The ThermoFluor® (TF) assay is a 384-well plate-based binding assay that measures thermal stability of proteins (Biomol Screen 2001, 6, 429-40; Biochemistry 2005, 44, 5258-66). The experiments were carried out using instruments available from Johnson & Johnson Pharmaceutical Research & Development, LLC. TF dye used in all experiments was […] (1,8-ANS) (Invitrogen: A-47).
Compounds were arranged in a pre-dispensed plate (Greiner Bio-one: 781280), wherein compounds were serially diluted in 100% DMSO across 11 columns within a series. Columns 12 and 24 were used as DMSO reference and contained no compound. For multiple compound concentration-response experiments, the compound aliquots ([…]) were robotically predispensed directly into black 384-well polypropylene PCR microplates (Abgene: TF-0384/k) using a Cartesian Hummingbird liquid handler (DigiLab, Holliston, Mass.). Following compound dispense, protein and dye solutions were added to achieve the final assay volume of 3 μL. The assay solutions were overlayed with 1 μL of silicone oil (Fluka, type DC 200: 85411) to prevent evaporation.
Assay plates were robotically loaded onto a thermostatically controlled PCR-type thermal block and then heated from 40 to 90° C. at a ramp-rate of 1° C./min for all experiments. Fluorescence was measured by continuous illumination with UV light (Hamamatsu LC6) supplied via fiber optics and filtered through a band-pass filter (380-400 nm; >6 OD cutoff). Fluorescence emission of the entire 384-well plate was detected by measuring light intensity using a CCD camera (Sensys, Roper Scientific) filtered to detect 500±25 nm, resulting in simultaneous and independent readings of all 384 wells. A single image with 20-sec exposure time was collected at each temperature, and the sum of the pixel intensity in a given area of the assay plate was recorded vs temperature and fit to standard equations to yield the Tm (J Biomol Screen 2001, 6, 429-40).
Thermodynamic parameters necessary for fitting compound binding for each proMMP were estimated by differential scanning calorimetry (DSC) and from ThermoFluor® data. The heat capacity of unfolding for each protein was estimated from the molecular weight and from ThermoFluor® dosing data.
The proMMP13(1-268) (SEQ ID NO:7) protein sample preparations included a desalting buffer exchange step via a PD-10 gravity column (GE Healthcare). The desalting buffer exchange was performed prior to diluting the protein to the final assay concentration of 3.5 μM. The concentration of proMMP13(1-268) (SEQ ID NO:7) was estimated spectrophotometrically based on a calculated extinction coefficient of ε280=37000 M^−1 cm^−1, a calculated molecular weight of 30.8 kDa, and calculated pI of 5.33. ThermoFluor® reference conditions were defined as follows: 100 μg/mL proMMP13(1-268) (SEQ ID NO:7), 25 μM 1,8-ANS, pH 7.0 Buffer (50 mM HEPES pH 7.0, 100 mM NaCl, 0.001% Tween-20, 2.5 mM MgCl2, 300 μM CaCl2). The thermodynamic parameters for proMMP13(1-268) (SEQ ID NO:7) are as follows: Tm (° C.)=67 (+/−0.1), ΔUH(Tm) (cal mol^−1)=107000(+/−5000), ΔUS(Tm) (cal mol^−1 K^−1)=318, ΔUCp (cal mol^−1 K^−1)=2600.

Experiment [2] addresses T2, full-length proMMP9(1-707) activation by catalytic MMP3 (Homo sapiens, UniProt P14780, R574P). The experiment is described as follows: proMMP9/MMP3 P126 Activation Assay. It is filed as biochemical. More on the design: made in house; host or cells: E. coli (MMP3). Particulars: proMMP9 from HEK293 cells.
Procedure: The assay buffer employed was 50 mM Hepes, pH 7.5, 10 mM CaCl2, 0.05% Brij-35. DMSO was included at a final concentration of 2%, arising from the test compound addition. […] The reaction volume was 50 μL. […] Initial velocities were plotted by use of a four-parameter logistics equation (GraphPad Prism® software) for determination of IC50.
Experiment [3] deals with T3, proMMP9(20-445;ΔFnII) (SEQ ID NO:6) (Homo sapiens, UniProt P14780, DEL216-390).
T3 construct: amino acid pairs including: 29-215/391-444, 67-215/391-444, and 20-215/391-445, respectively; start methionine (N); made in house; host or cells: E. coli BL21(DE3) RIL
T3 sequence (P14780 with tags, fused parts or gaps DEL216-390): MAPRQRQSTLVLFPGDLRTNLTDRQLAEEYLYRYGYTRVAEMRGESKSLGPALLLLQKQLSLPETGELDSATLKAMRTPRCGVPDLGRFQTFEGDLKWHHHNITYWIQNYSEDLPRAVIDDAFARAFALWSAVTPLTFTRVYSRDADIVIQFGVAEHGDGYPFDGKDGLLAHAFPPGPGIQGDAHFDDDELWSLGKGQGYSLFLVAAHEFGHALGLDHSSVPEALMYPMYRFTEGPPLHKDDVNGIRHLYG
Nature of the experiment: ThermoFluor binding assay with proMMP9(20-445;ΔFnII). The method, boiled down:
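Thermal shift with 1,8-ANS dye, heating from 40 to 90 °C at 1 °C/min. Fluorescence excited at 380–400 nm and read at 500±25 nm. Protein was buffer-exchanged by desalting, and binding fitted using heat capacity and thermodynamic parameters from DSC and ThermoFluor dosing data, with DMSO reference wells.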
Background: In DSF a fluorescence change marks the thermal transition of the protein.

The target in experiment [4] is T4, proMMP9(67-444;ΔFnII) (SEQ ID NO:5) (Homo sapiens, UniProt P14780, DEL216-390).
T4 construct: amino acid pairs including: 29-215/391-444, 67-215/391-444, and 20-215/391-445, respectively; start methionine (N); made in house; host or cells: E. coli BL21(DE3) RIL
T4 sequence (P14780 with tags, fused parts or gaps DEL216-390): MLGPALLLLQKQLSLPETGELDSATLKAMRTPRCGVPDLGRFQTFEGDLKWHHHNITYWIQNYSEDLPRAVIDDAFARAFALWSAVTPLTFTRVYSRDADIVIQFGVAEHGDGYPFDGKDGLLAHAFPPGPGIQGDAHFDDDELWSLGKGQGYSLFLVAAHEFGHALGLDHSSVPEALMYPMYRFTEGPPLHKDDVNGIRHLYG
The experiment is described as follows: ThermoFluor binding assay with proMMP9(67-444;ΔFnII). The method, boiled down:
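Thermal shift (ThermoFluor) with 1,8-ANS dye; protein desalted by buffer exchange before use. Samples heated 40 to 90 °C at 1 °C/min, excitation 380-400 nm, emission 500±25 nm. Binding fitted using unfolding thermodynamic parameters from DSC and ThermoFluor dosing data.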

The target of experiment [5] is T2, full-length proMMP9(1-707) activation by catalytic MMP3. Nature of the experiment: ProMMP9/MMP3 DQ Gelatin Activation Assay.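 Note: readout is fluorescence of quenched fluorescein gelatin cut by activated MMP9, 30 min activation at 37 °C, inhibition relative to DMSO-only controls with EDTA as blank.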 The class given is biochemical. On the set-up: made in house; host or cells: COS-1 (proMMP9); E. coli (MMP3). Particulars: proMMP9 from COS-1 cells; read-out: ProMMP9/MMP3 DQ gel, IC50.
Procedure: Compounds were assessed for inhibition of proMMP9 activation by catalytic MMP3 using a quenched fluorescein gelatin substrate (DQ gelatin, Invitrogen D12054) that fluoresces upon cleavage by activated MMP9. The assay buffer employed was 50 mM Hepes, pH 7.5, 10 mM CaCl2, 0.05% Brij-35. DMSO was included at a final concentration of 0.2%, arising from the test compound addition. […] Test compounds in DMSO were diluted 250-fold in assay buffer at 4× the final concentration. The reaction volume was 12 μL, and all reactions were conducted in triplicate. […] The plate was sealed and incubated for 30 min at 37° C. […] Immediately following the 30 min incubation, 4 μL of 40 μg/ml DQ gelatin substrate was added (freshly diluted in assay buffer), and incubated for 10 min at room temperature. […] Reactivity of residual MMP3 towards DQ gelatin was minimal under these conditions. Percent inhibition of test compounds were determined from suitable positive (DMSO only in assay buffer) and negative (EDTA added prior to reaction initiation) controls. Plots of % inhibition vs. test compound concentration were fit to a four-parameter logistics equation (GraphPad Prism® software) for determination of IC50.
Experiment [6] deals with T5, human catalytic MMP3, MMP3(100-265) (Homo sapiens, UniProt P08254).
T5 construct: Catalytic MMP3 was amino acids 100-265 of human MMP3 from UniProtKB/Swiss-Prot P08254; 6x-Histidine tag (C); made in house; host or cells: E. coli
Nature of the experiment: Catalytic MMP3 enzyme assay (fluorogenic peptide M2110). The class given is biochemical. As for the experimental part: Compounds were assessed for inhibition of human catalytic MMP3, MMP3(100-265) (SEQ ID NO:8), using a peptide (Mca-RPKPVE-Nva-WRK(Dnp)-NH2, Bachem M2110) that fluoresces upon cleavage by catalytic MMP3. […] The reaction volume was 100 μL. […] Final concentrations employed were 20 nM catalytic MMP3 and 20 μM M2110 substrate.

Counter-ions that a name gives are not always drawn.

T2 sequence (P14780 20-707 R574P): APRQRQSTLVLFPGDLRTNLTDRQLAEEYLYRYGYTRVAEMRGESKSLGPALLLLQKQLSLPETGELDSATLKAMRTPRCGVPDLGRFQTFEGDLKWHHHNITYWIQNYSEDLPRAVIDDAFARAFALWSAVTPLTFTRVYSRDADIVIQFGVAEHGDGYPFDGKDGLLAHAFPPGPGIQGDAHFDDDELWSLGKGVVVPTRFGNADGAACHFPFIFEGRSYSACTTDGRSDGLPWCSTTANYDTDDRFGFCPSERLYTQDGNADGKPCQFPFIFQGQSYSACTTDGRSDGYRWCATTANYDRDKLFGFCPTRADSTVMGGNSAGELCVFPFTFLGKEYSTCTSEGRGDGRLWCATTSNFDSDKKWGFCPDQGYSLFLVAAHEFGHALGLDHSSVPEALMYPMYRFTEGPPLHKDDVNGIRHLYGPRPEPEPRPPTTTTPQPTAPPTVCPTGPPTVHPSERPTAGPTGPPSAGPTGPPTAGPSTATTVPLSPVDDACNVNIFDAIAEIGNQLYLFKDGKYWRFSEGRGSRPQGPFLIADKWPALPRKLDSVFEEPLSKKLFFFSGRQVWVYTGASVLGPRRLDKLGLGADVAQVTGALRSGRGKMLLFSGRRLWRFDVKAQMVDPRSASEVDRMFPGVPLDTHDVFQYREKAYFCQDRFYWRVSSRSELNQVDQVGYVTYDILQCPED
T5 sequence (P08254 with tags, fused parts or gaps): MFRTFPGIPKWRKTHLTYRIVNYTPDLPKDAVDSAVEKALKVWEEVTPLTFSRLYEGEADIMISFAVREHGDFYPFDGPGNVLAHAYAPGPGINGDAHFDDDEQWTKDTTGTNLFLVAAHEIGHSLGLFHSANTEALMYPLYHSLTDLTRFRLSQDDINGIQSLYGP

In general, Kd refers to the equilibrium constant for the complex coming apart. A low value points to a tighter complex. Consider `CC(=O)Nc1nc(C)c(-c2csc(Nc3ccccc3OC(C)C)n2)s1` [Example 1, N-[2-(2-Isopropoxy-phenylamino)-4′-methyl-[4,5′]bithiazolyl-2′-yl]-acetamide], for which the Kd in experiment [1] came out at 14.1 µM; in experiment [3] it was 8.68 µM; in experiment [4] it was 1290 nM. For the same compound, in experiment [2], the IC50 is 2500 nM.

As for `Cc1nc(C)c(-c2csc(Nc3ccccc3OC(C)C)n2)s1` [Example 2, (2′,4′-Dimethyl-[4,5′]bithiazolyl-2-yl)-(2-isopropoxy-phenyl)-amine], the Kd in experiment [1] was 42.5 µM; in experiment [3], more than 95 µM; in experiment [4], 55300 nM. In experiment [2], this compound returned an IC50 of 2500 nM.

Take `COc1ccc(F)cc1Nc1nc(-c2sc(C)nc2C)cs1` [Example 5, (2′,4′-Dimethyl-[4,5′]bithiazolyl-2-yl)-(5-fluoro-2-methoxy-phenyl)-amine.HBr]: the Kd was 20 µM in experiment [1], more than 95 µM in experiment [3] and 5490 nM in experiment [4]. In experiment [2], the IC50 stood at 710 nM.

With `COc1ccc(F)cc1Nc1nc(-c2sc(NC(C)=O)nc2C)cs1` [Example 6], the equilibrium dissociation constant (Kd) in experiment [1] turned out to be 15.1 µM; in experiment [3] it was 0.907 µM; in experiment [4], 156 nM. Moreover, in experiment [2], the IC50 is 650 nM.

As to `CC(=O)Nc1nc(C)c(-c2csc(Nc3cc(F)ccc3OC(C)C)n2)s1` [Example 12, N-[2-(5-Fluoro-2-isopropoxy-phenylamino)-4′-methyl-[4,5′]bithiazolyl-2′-yl]-acetamide], the Kd came out at 12 µM in experiment [1], 13.8 µM in experiment [3] and 2920 nM in experiment [4]. In experiment [2], this compound showed an IC50 of 3600 nM.

Take `Cc1nc(C)c(-c2csc(Nc3cc(F)ccc3OC(C)C)n2)s1` [Example 13, (2′,4′-Dimethyl-[4,5′]bithiazolyl-2-yl)-(5-fluoro-2-isopropoxy-phenyl)-amine]: the Kd in experiment [1] is more than 95 µM; in experiment [3], more than 95 µM; in experiment [4], more than 95000 nM. The compound also came in with an IC50 in experiment [2] of approximately 2000 nM.

For the compound `Cc1nc(C)c(-c2csc(Nc3ccccc3OC(F)(F)F)n2)s1` [Example 14, (2′,4′-Dimethyl-[4,5′]bithiazolyl-2-yl)-(2-trifluoromethoxy-phenyl)-amine], the Kd in experiment [1] is 9.12 µM; in experiment [3], more than 95 µM. This compound had an IC50 in experiment [2] of 3600 nM.

As for `COc1ccc(F)cc1Nc1nc(-c2cccnc2)cs1` [Example 16, (5-Fluoro-2-methoxy-phenyl)-(4-pyridin-3-yl-thiazol-2-yl)-amine.HBr], the values for the Kd in experiment [1], in experiment [3] and in experiment [4] were more than 95 µM, more than 95 µM and 8900 nM, respectively. The IC50 in experiment [2] is 3600 nM.

Consider `COc1ccc(Br)cc1Nc1nc(-c2sc(NC(C)=O)nc2C)cs1` [Example 21, N-[2-(5-Bromo-2-methoxy-phenylamino)-4′-methyl-[4,5′]bithiazolyl-2′-yl]-acetamide.HBr], for which the results for the Kd in experiment [1], in experiment [3] and in experiment [4] were 3.57 µM, 4.48 µM and 140 nM, respectively. Also, in experiment [2], the IC50 is 2800 nM.

Regarding `COc1ccccc1Nc1nc(-c2sc(NS(C)(=O)=O)nc2C)cs1` [Example 34, N-[2-(2-Methoxy-phenylamino)-4′-methyl-[4,5′]bithiazolyl-2′-yl]-methanesulfonamide], the Kd came out at 43.5 µM in experiment [1], 3.64 µM in experiment [3] and 820 nM in experiment [4]. For the same compound, the IC50 in experiment [2] is 4000 nM; in experiment [5], 2.3 µM.

For `COc1ccc(F)cc1Nc1nc(-c2c(C)nc(C)n2C)cs1` [Example 42, (5-Fluoro-2-methoxy-phenyl)-[4-(2,3,5-trimethyl-3H-imidazol-4-yl)-thiazol-2-yl]-amine], the figures for the Kd in experiment [1] and in experiment [3] were 5.35 µM and 28.8 µM, respectively. Moreover, in experiment [2], the IC50 is 5000 nM.

As for `COc1ccccc1Nc1nc(-c2sc(C)cc2C)cs1` [Example 45, [4-(3,5-Dimethyl-thiophen-2-yl)-thiazol-2-yl]-(2-methoxy-phenyl)-amine.TFA], the Kd in experiment [1] was more than 95 µM; in experiment [3], 1.65 µM; in experiment [4], 10000 nM. Besides, the IC50 in experiment [2] was more than 50000 nM; in experiment [5], more than 20 µM.

With `COc1ccccc1Nc1nc(-c2sc(NC(C)=O)nc2C)cs1` [Example 65, N-[2-(2-Methoxy-phenylamino)-4′-methyl-[4,5′]bithiazolyl-2′-yl]-acetamide], binding in experiment [1] was put at a Kd of 37.5 µM. For the same compound, in experiment [6], the IC50 was more than 50 µM.

On to `COc1ccccc1Nc1nc(-c2sc(N)nc2C)cs1` [Example 68, N^2-(2-Methoxy-phenyl)-4′-methyl-[4,5′]bithiazolyl-2,2′-diamine], for which the Kd in experiment [1] is 14.5 µM; in experiment [3], 3.76 µM; in experiment [4] it was 1120 nM. Moreover, the IC50 in experiment [2] is 2500 nM; in experiment [5], 3.1 µM.

For the compound `Brc1ccc(Nc2nc(-c3cccnc3)cs2)cn1` [Example 70, (6-Bromo-pyridin-3-yl)-(4-pyridin-3-yl-thiazol-2-yl)-amine], the Kd in experiment [1] stood at 0.668 µM; in experiment [3] it was 5.79 µM; in experiment [4], 12000 nM. This compound also gave an IC50 in experiment [2] of more than 20000 nM.
